Measured values taken from ChEMBL document CHEMBL1154068, “Synthesis and evaluation of A-seco type triterpenoids for anti-HIV-1protease activity” (Eur J Med Chem, 2009).

What was measured:
Protease = Protease (Human immunodeficiency virus 1, UniProt Q9YQ12); experiment: Inhibition of HIV1 protease
[1] = Inhibition of HCV NS3/4A protease by fluorimetric assay; parameters: species or system Hepacivirus hominis
Renin = target: T1, Renin (Homo sapiens, UniProt P00797); experiment: Inhibition of renin by fluorimetric assay
T1 sequence (P00797 whole entry): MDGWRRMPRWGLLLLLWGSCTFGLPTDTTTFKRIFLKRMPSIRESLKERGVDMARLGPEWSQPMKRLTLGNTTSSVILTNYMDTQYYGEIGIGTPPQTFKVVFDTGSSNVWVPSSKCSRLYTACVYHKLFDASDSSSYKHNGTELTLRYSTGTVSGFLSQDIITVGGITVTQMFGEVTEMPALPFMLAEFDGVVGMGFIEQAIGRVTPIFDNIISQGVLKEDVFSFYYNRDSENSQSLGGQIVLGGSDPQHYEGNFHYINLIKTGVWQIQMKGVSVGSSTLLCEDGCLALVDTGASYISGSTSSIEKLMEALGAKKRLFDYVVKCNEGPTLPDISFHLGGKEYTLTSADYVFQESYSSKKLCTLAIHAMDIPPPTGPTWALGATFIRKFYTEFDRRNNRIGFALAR

[2] = Inhibition of trypsin by fluorimetric assay

Protease, sequence (Q9YQ12 whole entry): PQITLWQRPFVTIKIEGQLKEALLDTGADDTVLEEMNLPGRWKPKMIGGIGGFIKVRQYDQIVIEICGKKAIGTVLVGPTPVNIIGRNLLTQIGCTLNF

Row | SMILES | IC50 (Protease) [µM] | IC50 [1] [µM] | IC50 (Renin) [µM] | IC50 [2] [µM]
1 | C[C@@H]1[C@H]2[C@H]3CC[C@@H]4[C@@]5(C)C=C(O)C(=O)C(C)(C)[C@@H]5CC[C@@]4(C)[C@]3(C)CC[C@@]2(C(=O)O)CC[C@H]1C | 25.4 |  |  | 
2 | C=C(C)[C@@H]1CC[C@@]2(C)[C@@H]1[C@@H]1CC[C@@H]3[C@@](C)(CC(=O)O)[C@H](C(C)(C)C(=O)O)CC[C@@]3(C)[C@]1(C)C[C@@H]2O | 10.9 | > 205 | > 2050 | > 2050
3 | C=C(C)[C@@H]1CC[C@]2(C(=O)O)CC[C@]3(C)[C@@H](CC[C@@H]4[C@@](C)(CC(=O)O)[C@H](C(C)(C)C(=O)O)CC[C@]43C)[C@H]12 | 15.7 | > 199 | > 1990 | 856
4 | CC1(C)C(=O)CC[C@]2(C)[C@H]3C(=O)C=C4[C@H]5C[C@@](C)(C(=O)O)CC[C@]5(C)CC[C@@]4(C)[C@]3(C)CC[C@@H]12 | 23.6 |  |  | 
5 | CC1(C)CC[C@]2(C(=O)O)CC[C@]3(C)[C@H](CC[C@@H]4[C@@]5(C)C=C(O)C(=O)C(C)(C)[C@@H]5CC[C@]43C)[C@H]2C1 | 19.2 |  |  | 
6 | CC1(C)CC[C@]2(C(=O)O)CC[C@]3(C)C(=CC[C@@H]4[C@@](C)(CC(=O)O)[C@H](C(C)(C)C(=O)O)CC[C@]43C)[C@H]2C1 | 3.9 | > 199 | > 1990 | > 1990
7 | CC1(C)C(=O)C(O)=C[C@]2(C)[C@H]3C(=O)C[C@@H]4[C@H]5C[C@@](C)(C(=O)O)CC[C@]5(C)CC[C@@]4(C)[C@]3(C)CC[C@@H]12 | 15.8 |  |  | 
8 | C=C(C)[C@@H]1CC[C@]2(C(=O)O)CC[C@]3(C)[C@@H](CC[C@@H]4[C@@]5(C)C=C(O)C(=O)C(C)(C)[C@@H]5CC[C@]43C)[C@H]12 | 18.8 |  |  | 
9 | CC(C)(C(=O)O)[C@@H]1CC[C@]2(C)[C@H](C(=O)C=C3[C@H]4C[C@@](C)(C(=O)O)CC[C@]4(C)CC[C@]32C)[C@@]1(C)CC(=O)O | 5.7 | > 194 | > 1930 | > 1940
10 | CC1(C)CC[C@]2(C(=O)O)CC[C@]3(C)C(=CC[C@@H]4[C@@]5(C)CCC(=O)C(C)(C)[C@@H]5CC[C@]43C)[C@H]2C1 | 27.4 |  |  | 
11 | CC1(C)CC[C@]2(CO)CC[C@]3(C)C(=CC[C@@H]4[C@@](C)(CC(=O)O)[C@H](C(C)(C)C(=O)O)CC[C@]43C)[C@H]2C1 | 30.4 |  |  | 
12 | CC(C)[C@@H](NC(=O)[C@]12CCC(C)(C)C[C@@H]1C1=CC[C@@H]3[C@@]4(C)CC[C@H](O)C(C)(C)[C@@H]4CC[C@@]3(C)[C@]1(C)CC2)C(=O)O | 47.3 |  |  | 
13 | C[C@H]1[C@H](C)CC[C@]2(C(=O)O)CC[C@]3(C)C(=CC[C@@H]4[C@@](C)(CC(=O)O)[C@H](C(C)(C)C(=O)O)CC[C@]43C)[C@H]12 | 17.6 | > 199 | > 1990 | > 1990
14 | C=C(C)[C@@H]1CC[C@]2(C)CC[C@]3(C)[C@@H](CC[C@@H]4[C@@]5(C)CCC(=O)C(C)(C)[C@@H]5CC[C@]43C)[C@H]12 | > 236 |  |  | 
15 | CC(C)[C@H](NC(=O)[C@]12CCC(C)(C)C[C@@H]1C1=CC[C@@H]3[C@@]4(C)CCC(=O)C(C)(C)[C@@H]4CC[C@@]3(C)[C@]1(C)CC2)C(=O)O | 14.6 |  |  | 
16 | CC(C)[C@@H](NC(=O)[C@]12CCC(C)(C)C[C@@H]1C1=CC[C@@H]3[C@@](C)(CC(=O)O)[C@H](C(C)(C)C(=O)O)CC[C@@]3(C)[C@]1(C)CC2)C(=O)O | 88.1 | > 166 | > 1660 | > 1660

Row | SMILES | IC50 (Protease) [µM] | IC50 [1] [µM] | IC50 (Renin) [µM] | IC50 [2] [µM]
17 | COC(=O)[C@@H](NC(=O)[C@]12CCC(C)(C)C[C@@H]1C1=CC[C@@H]3[C@@]4(C)CC[C@H](O)C(C)(C)[C@@H]4CC[C@@]3(C)[C@]1(C)CC2)C(C)C | 24.6 |  |  | 
18 | COC(=O)[C@@H](NC(=O)[C@]12CCC(C)(C)C[C@@H]1C1=CC[C@@H]3[C@@]4(C)CC[C@H](OC(C)=O)C(C)(C)[C@@H]4CC[C@@]3(C)[C@]1(C)CC2)C(C)C | 21.3 |  |  | 
19 | COC(=O)[C@H](NC(=O)[C@]12CCC(C)(C)C[C@@H]1C1=CC[C@@H]3[C@@]4(C)CCC(=O)C(C)(C)[C@@H]4CC[C@@]3(C)[C@]1(C)CC2)C(C)C | 41.4 |  |  | 
20 | COC(=O)[C@@H](NC(=O)[C@]12CCC(C)(C)C[C@@H]1C1=CC[C@@H]3[C@@]4(C)CCC(=O)C(C)(C)[C@@H]4CC[C@@]3(C)[C@]1(C)CC2)C(C)C | 37 |  |  | 
21 | CC(C)[C@@H](NC(=O)[C@]12CCC(C)(C)C[C@@H]1C1=CC[C@@H]3[C@@]4(C)CCC(=O)C(C)(C)[C@@H]4CC[C@@]3(C)[C@]1(C)CC2)C(=O)O | 45.2 |  |  | 
22 | CC(C)[C@H](NC(=O)[C@]12CCC(C)(C)C[C@@H]1C1=CC[C@@H]3[C@@]4(C)CC[C@H](O)C(C)(C)[C@@H]4CC[C@@]3(C)[C@]1(C)CC2)C(=O)O | 10.6 |  |  | 
23 | COC(=O)[C@H](NC(=O)[C@]12CCC(C)(C)C[C@@H]1C1=CC[C@@H]3[C@@]4(C)CC[C@H](O)C(C)(C)[C@@H]4CC[C@@]3(C)[C@]1(C)CC2)C(C)C | 32.3 |  |  | 
24 | CC(C)[C@@H](NC(=O)[C@]12CCC(C)(C)C[C@@H]1[C@H]1CC[C@@H]3[C@@]4(C)C=C(O)C(=O)C(C)(C)[C@@H]4CC[C@@]3(C)[C@]1(C)CC2)C(=O)O | 49.7 |  |  | 
25 | CC(C)[C@H](NC(=O)[C@]12CCC(C)(C)C[C@@H]1[C@H]1CC[C@@H]3[C@@]4(C)C=C(O)C(=O)C(C)(C)[C@@H]4CC[C@@]3(C)[C@]1(C)CC2)C(=O)O | 40.5 |  |  | 
26 | C=C(C)[C@@H]1CC[C@]2(C)CC[C@]3(C)[C@@H](CC[C@@H]4[C@@]5(C)C=C(O)C(=O)C(C)(C)[C@@H]5CC[C@]43C)[C@H]12 | 24.6 |  |  | 
27 | CC1(C)CC[C@]2(C(=O)O)CC[C@]3(C)C(=CC[C@@H]4[C@@]5(C)CC(=O)C(C)(C)[C@@H]5CC[C@]43C)[C@H]2C1 | 28.6 |  |  | 
28 | C=C(C)[C@@H]1CC[C@]2(C=O)CC[C@]3(C)[C@@H](CC[C@@H]4[C@@]5(C)CCC(=O)C(C)(C)[C@@H]5CC[C@]43C)[C@H]12 | 31.9 |  |  | 
29 | C=C(C)[C@@H]1CC[C@]2(C)CC[C@]3(C)[C@@H](CC[C@@H]4[C@@](C)(CC(=O)O)[C@H](C(C)(C)C(=O)O)CC[C@]43C)[C@H]12 | 25.4 | 80.3 | > 2120 | > 2120
30 | CC(=O)O[C@H]1CC[C@]2(C)[C@H]3CC=C4[C@@H]5CC(C)(C)CC[C@]5(C(=O)O)CC[C@@]4(C)[C@]3(C)CC[C@H]2C1(C)C [ACETYL OLEANOLIC ACID] | > 201 |  |  | 
31 | C[C@H]1[C@H](C)CC[C@]2(C(=O)O)CC[C@]3(C)C(=CC[C@@H]4[C@@]5(C)CCC(=O)C(C)(C)[C@@H]5CC[C@]43C)[C@H]12 [URSONIC ACID] | 37.5 |  |  | 
